Assay results from patent EP0198522A1, “Heterocyclic herbicides” (SHELL INTERNATIONALE RESEARCH MAATSCHAPPIJ B.V., priority 1985, dated 1986).

Columns and labels:
Format in all cases: in vivo
[1] = tested on: barnyard grass, Echinochloa crusgalli; assay: Herbicidal activity, post-emergence soil drench test; settings: 10 kg/ha soil drench; assessed visually thirteen days after drenching; 0-9 scale, 0 = growth as untreated control, 9 = death
Method: (§1) To evaluate their herbicidal activity, compounds according to the invention were tested using as representative range of plants: maize, Zea mays (Mz); rice, Oryza sativa (R); barnyard grass, Echinochloa crusgalli (BG); oat, Avena sativa (0); linseed, Linum usitatissisum (L); mustard, Sinapsis alba (M); sugar beet, Beta vulgaris (SB) and soya bean, Glycine max (S).
(§2) The tests fall into two categories, pre-emergence and post-emergence. […] The post-emergence tests involved two types of test, viz., soil drench and foliar spray tests. In the soil drench tests the soil in which the seedling plants of the above species were growing was drenched with a liquid formulation containing a compound of the invention, and in the foliar spray tests the seedling plants were sprayed with such a formulation.
(§3) The soil used in the tests was a prepared horticultural loam.
(§4) These acetone solutions were diluted with water and the resulting formulations applied at dosage levels corresponding to 5 kg or 1 kg of active material per hectare in a volume equivalent to 600 litres per hectare in the soil spray and foliar spray test, and at a dosage of level equivalent to 10 kilograms of active material per hectare in a volume equivalent to approximately 3,000 litres per hectare in the soil drench tests.
(§5) In the pre-emexgence tests untreated sown soil and in the post-emergence tests untreated soil bearing seedling plants were used as controls.
(§6) The herbicidal effects of the test compounds were assessed visually twelve days after spraying the foliage and the soil, and thirteen days after drenching the soil and were recorded on a 0-9 scale. A rating 0 indicates growth as untreated control, a rating 9 indicates death. An increase of 1 unit on the linear scale approximates to a 10% increase in the level of effect.

[2] = tested on: linseed, Linum usitatissisum; assay: as above; settings: 10 kg/ha soil drench; assessed visually thirteen days after drenching; 0-9 scale, 0 = growth as untreated control, 9 = death
Method: as §1, §2, §3, §4, §5, §6

maize, Zea mays [3] = assay: as above; settings: 10 kg/ha soil drench; assessed visually thirteen days after drenching; 0-9 scale, 0 = growth as untreated control, 9 = death
Method: as §1, §2, §3, §4, §5, §6

mustard, Sinapsis alba [4] = assay: as above; settings: 10 kg/ha soil drench; assessed visually thirteen days after drenching; 0-9 scale, 0 = growth as untreated control, 9 = death
Method: as §1, §2, §3, §4, §5, §6

oat, Avena sativa [5] = assay: as above; settings: 10 kg/ha soil drench; assessed visually thirteen days after drenching; 0-9 scale, 0 = growth as untreated control, 9 = death
Method: as §1, §2, §3, §4, §5, §6

rice, Oryza sativa [6] = assay: as above; settings: 10 kg/ha soil drench; assessed visually thirteen days after drenching; 0-9 scale, 0 = growth as untreated control, 9 = death
Method: as §1, §2, §3, §4, §5, §6

soya bean, Glycine max [7] = assay: as above; settings: 10 kg/ha soil drench; assessed visually thirteen days after drenching; 0-9 scale, 0 = growth as untreated control, 9 = death
Method: as §1, §2, §3, §4, §5, §6

[8] = tested on: sugar beet, Beta vulgaris; assay: as above; settings: 10 kg/ha soil drench; assessed visually thirteen days after drenching; 0-9 scale, 0 = growth as untreated control, 9 = death
Method: as §1, §2, §3, §4, §5, §6

[9] = tested on: barnyard grass, Echinochloa crusgalli; assay: Herbicidal activity, post-emergence foliar spray test; settings: assessed visually twelve days after spraying, 0-9 scale, 0 = growth as untreated control, 9 = death
Method: as §1, §2, §3, §4, §5, §6

[10] = tested on: linseed, Linum usitatissisum; assay: as above; settings: assessed visually twelve days after spraying, 0-9 scale, 0 = growth as untreated control, 9 = death
Method: as §1, §2, §3, §4, §5, §6

maize, Zea mays [11] = assay: as above; settings: assessed visually twelve days after spraying, 0-9 scale, 0 = growth as untreated control, 9 = death
Method: as §1, §2, §3, §4, §5, §6

mustard, Sinapsis alba [12] = assay: as above; settings: assessed visually twelve days after spraying, 0-9 scale, 0 = growth as untreated control, 9 = death
Method: as §1, §2, §3, §4, §5, §6

oat, Avena sativa [13] = assay: as above; settings: assessed visually twelve days after spraying, 0-9 scale, 0 = growth as untreated control, 9 = death
Method: as §1, §2, §3, §4, §5, §6

rice, Oryza sativa [14] = assay: as above; settings: assessed visually twelve days after spraying, 0-9 scale, 0 = growth as untreated control, 9 = death
Method: as §1, §2, §3, §4, §5, §6

soya bean, Glycine max [15] = assay: as above; settings: assessed visually twelve days after spraying, 0-9 scale, 0 = growth as untreated control, 9 = death
Method: as §1, §2, §3, §4, §5, §6

[16] = tested on: sugar beet, Beta vulgaris; assay: as above; settings: assessed visually twelve days after spraying, 0-9 scale, 0 = growth as untreated control, 9 = death
Method: as §1, §2, §3, §4, §5, §6

[17] = tested on: barnyard grass, Echinochloa crusgalli; assay: Herbicidal activity, pre-emergence test (soil spray); settings: assessed visually twelve days after spraying, 0-9 scale, 0 = growth as untreated control, 9 = death
Method: as §1, §2, §3, §4, §5, §6

[18] = tested on: linseed, Linum usitatissisum; assay: as above; settings: assessed visually twelve days after spraying, 0-9 scale, 0 = growth as untreated control, 9 = death
Method: as §1, §2, §3, §4, §5, §6

maize, Zea mays [19] = assay: as above; settings: assessed visually twelve days after spraying, 0-9 scale, 0 = growth as untreated control, 9 = death
Method: as §1, §2, §3, §4, §5, §6

mustard, Sinapsis alba [20] = assay: as above; settings: assessed visually twelve days after spraying, 0-9 scale, 0 = growth as untreated control, 9 = death
Method: as §1, §2, §3, §4, §5, §6

oat, Avena sativa [21] = assay: as above; settings: assessed visually twelve days after spraying, 0-9 scale, 0 = growth as untreated control, 9 = death
Method: as §1, §2, §3, §4, §5, §6

rice, Oryza sativa [22] = assay: as above; settings: assessed visually twelve days after spraying, 0-9 scale, 0 = growth as untreated control, 9 = death
Method: as §1, §2, §3, §4, §5, §6

soya bean, Glycine max [23] = assay: as above; settings: assessed visually twelve days after spraying, 0-9 scale, 0 = growth as untreated control, 9 = death
Method: as §1, §2, §3, §4, §5, §6

[24] = tested on: sugar beet, Beta vulgaris; assay: as above; settings: assessed visually twelve days after spraying, 0-9 scale, 0 = growth as untreated control, 9 = death
Method: as §1, §2, §3, §4, §5, §6

CC(C)C1(C)NC(c2nc3cc4c(cc3cc2C(=O)[O-])OCO4)=NC1=O.[Na+] (stereo not shown) [Example 4, Sodivmt-2-(5-isopropyl-5-methyl-4-oxo-2-imidazolin-2-yl)-[1,3]-dioxolo[4,5-g] quinoline-3-carboxylic acid (salt)]
Soil drench 10/kg/ha BG (herbicidal effect rating) [1]: 8
Soil drench 10/kg/ha L (herbicidal effect rating) [2]: 6
Soil drench 10/kg/ha Mz (herbicidal effect rating) (maize, Zea mays [3]): 5
Soil drench 10/kg/ha M (herbicidal effect rating) (mustard, Sinapsis alba [4]): 8
Soil drench 10/kg/ha O (herbicidal effect rating) (oat, Avena sativa [5]): 4
Soil drench 10/kg/ha R (herbicidal effect rating) (rice, Oryza sativa [6]): 5
Soil drench 10/kg/ha S (herbicidal effect rating) (soya bean, Glycine max [7]): 6
Soil drench 10/kg/ha SB (herbicidal effect rating) [8]: 8
Foliar spray BG (herbicidal effect rating) ([9]; Dosage 1 kg/ha): 7
Foliar spray BG (herbicidal effect rating) ([9]; Dosage 5 kg/ha): 8
Foliar spray L (herbicidal effect rating) ([10]; Dosage 1 kg/ha): 6
Foliar spray L (herbicidal effect rating) ([10]; Dosage 5 kg/ha): 6
Foliar spray Mz (herbicidal effect rating) (maize, Zea mays [11]; Dosage 1 kg/ha): 4
Foliar spray Mz (herbicidal effect rating) (maize, Zea mays [11]; Dosage 5 kg/ha): 6
Foliar spray M (herbicidal effect rating) (mustard, Sinapsis alba [12]; Dosage 1 kg/ha): 8
Foliar spray M (herbicidal effect rating) (mustard, Sinapsis alba [12]; Dosage 5 kg/ha): 8
Foliar spray O (herbicidal effect rating) (oat, Avena sativa [13]; Dosage 1 kg/ha): 4
Foliar spray O (herbicidal effect rating) (oat, Avena sativa [13]; Dosage 5 kg/ha): 4
Foliar spray R (herbicidal effect rating) (rice, Oryza sativa [14]; Dosage 1 kg/ha): 4
Foliar spray R (herbicidal effect rating) (rice, Oryza sativa [14]; Dosage 5 kg/ha): 4
Foliar spray S (herbicidal effect rating) (soya bean, Glycine max [15]; Dosage 1 kg/ha): 2
Foliar spray S (herbicidal effect rating) (soya bean, Glycine max [15]; Dosage 5 kg/ha): 3
Foliar spray SB (herbicidal effect rating) ([16]; Dosage 1 kg/ha): 7
Foliar spray SB (herbicidal effect rating) ([16]; Dosage 5 kg/ha): 8
Pre-emergence BG (herbicidal effect rating) ([17]; Dosage 1 kg/ha): 8
Pre-emergence BG (herbicidal effect rating) ([17]; Dosage 5 kg/ha): 8
Pre-emergence L (herbicidal effect rating) ([18]; Dosage 1 kg/ha): 8
Pre-emergence L (herbicidal effect rating) ([18]; Dosage 5 kg/ha): 9
Pre-emergence Mz (herbicidal effect rating) (maize, Zea mays [19]; Dosage 1 kg/ha): 8
Pre-emergence Mz (herbicidal effect rating) (maize, Zea mays [19]; Dosage 5 kg/ha): 8
Pre-emergence M (herbicidal effect rating) (mustard, Sinapsis alba [20]; Dosage 1 kg/ha): 7
Pre-emergence M (herbicidal effect rating) (mustard, Sinapsis alba [20]; Dosage 5 kg/ha): 7
Pre-emergence O (herbicidal effect rating) (oat, Avena sativa [21]; Dosage 1 kg/ha): 5
Pre-emergence O (herbicidal effect rating) (oat, Avena sativa [21]; Dosage 5 kg/ha): 6
Pre-emergence R (herbicidal effect rating) (rice, Oryza sativa [22]; Dosage 1 kg/ha): 8
Pre-emergence R (herbicidal effect rating) (rice, Oryza sativa [22]; Dosage 5 kg/ha): 9
Pre-emergence S (herbicidal effect rating) (soya bean, Glycine max [23]; Dosage 1 kg/ha): 2
Pre-emergence S (herbicidal effect rating) (soya bean, Glycine max [23]; Dosage 5 kg/ha): 5
Pre-emergence SB (herbicidal effect rating) ([24]; Dosage 1 kg/ha): 8
Pre-emergence SB (herbicidal effect rating) ([24]; Dosage 5 kg/ha): 8
